Values belong to the compound of their own block, whether it stands above or below them.
Legend:
[1] = biological target: T1, integrins haα4 and β1 (VLA-4) expressed on CHO cells (Homo sapiens, UniProt P05556+P13612); test: In vitro Evaluation Test (1): binding of Eu3+-hVCAM-1 D1D7-IgG to CHO cells expressing integrins α4 and β1; conditions: inhibition of Eu3+-hVCAM-1 D1D7-IgG binding to CHO cells expressing α4β1; Ki calculated from IC50
T1 construct: expressed in transfected cells; host or cells: CHO cells
Outline: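 CHO cells transduced with human α4 and β1 were grown for 2 days. They were incubated 1 h at room temperature with Eu3+-hVCAM-1 D1D7-IgG (diluted to 2 nM before addition) and compound, with or without 6% HSA, in HEPES pH 7.5 containing Ca2+, Mg2+ and 4 mM Mn2+. Time-resolved fluorescence gave IC50; Ki used a Scatchard-derived Kd (0.06–20 nM).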

[2] = Evaluation of oral bioavailability by mouse bioassay; format: in vivo; conditions: 10 mg/kg oral, female Balb/C mice, serum 15 minutes after administration, read-out: Blood level
Procedure: A test compound was suspended or dissolved in a proper administration medium to give a concentration of 1 mg/ml. To 7 to 9 week old female Balb/C mice, 10 mg/kg of the resulting suspension or solution was orally administered. Fifteen minutes after the administration, blood was collected from the postcava under anesthesia with ether and the serum was separated from it. The concentration of each test compound was determined by estimating the serum level from a calibration curve obtained with VCAM-1/VLA-4 inhibitory activity as an index or measuring the concentration by using LC/MS/MS.

T1 sequence (P13612 34-1032): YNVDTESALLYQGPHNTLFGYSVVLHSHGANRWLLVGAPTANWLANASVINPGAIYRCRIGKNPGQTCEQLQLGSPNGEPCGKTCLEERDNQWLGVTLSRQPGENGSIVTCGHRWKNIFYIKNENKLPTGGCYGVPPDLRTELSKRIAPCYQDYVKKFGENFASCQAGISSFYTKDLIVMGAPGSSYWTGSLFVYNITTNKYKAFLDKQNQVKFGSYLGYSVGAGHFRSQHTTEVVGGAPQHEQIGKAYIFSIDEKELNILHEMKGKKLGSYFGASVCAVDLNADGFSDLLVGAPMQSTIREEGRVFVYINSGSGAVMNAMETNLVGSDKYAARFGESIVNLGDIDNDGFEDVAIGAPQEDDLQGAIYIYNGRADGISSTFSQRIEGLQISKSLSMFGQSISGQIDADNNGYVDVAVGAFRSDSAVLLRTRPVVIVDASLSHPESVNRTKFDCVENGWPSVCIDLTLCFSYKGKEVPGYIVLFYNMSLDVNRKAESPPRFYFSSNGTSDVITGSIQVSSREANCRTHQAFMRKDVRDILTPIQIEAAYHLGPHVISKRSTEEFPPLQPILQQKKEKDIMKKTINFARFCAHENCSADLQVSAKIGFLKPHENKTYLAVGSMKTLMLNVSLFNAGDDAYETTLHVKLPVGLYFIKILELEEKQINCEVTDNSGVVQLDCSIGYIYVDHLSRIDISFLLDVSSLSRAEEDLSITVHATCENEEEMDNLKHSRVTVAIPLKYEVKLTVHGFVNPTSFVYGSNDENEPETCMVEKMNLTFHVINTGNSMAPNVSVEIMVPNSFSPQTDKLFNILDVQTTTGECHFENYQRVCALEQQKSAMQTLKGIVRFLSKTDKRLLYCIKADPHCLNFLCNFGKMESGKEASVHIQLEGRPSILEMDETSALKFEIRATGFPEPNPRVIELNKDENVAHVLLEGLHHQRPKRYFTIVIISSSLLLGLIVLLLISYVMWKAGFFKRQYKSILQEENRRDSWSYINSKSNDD
T1 sequence (P05556 21-798): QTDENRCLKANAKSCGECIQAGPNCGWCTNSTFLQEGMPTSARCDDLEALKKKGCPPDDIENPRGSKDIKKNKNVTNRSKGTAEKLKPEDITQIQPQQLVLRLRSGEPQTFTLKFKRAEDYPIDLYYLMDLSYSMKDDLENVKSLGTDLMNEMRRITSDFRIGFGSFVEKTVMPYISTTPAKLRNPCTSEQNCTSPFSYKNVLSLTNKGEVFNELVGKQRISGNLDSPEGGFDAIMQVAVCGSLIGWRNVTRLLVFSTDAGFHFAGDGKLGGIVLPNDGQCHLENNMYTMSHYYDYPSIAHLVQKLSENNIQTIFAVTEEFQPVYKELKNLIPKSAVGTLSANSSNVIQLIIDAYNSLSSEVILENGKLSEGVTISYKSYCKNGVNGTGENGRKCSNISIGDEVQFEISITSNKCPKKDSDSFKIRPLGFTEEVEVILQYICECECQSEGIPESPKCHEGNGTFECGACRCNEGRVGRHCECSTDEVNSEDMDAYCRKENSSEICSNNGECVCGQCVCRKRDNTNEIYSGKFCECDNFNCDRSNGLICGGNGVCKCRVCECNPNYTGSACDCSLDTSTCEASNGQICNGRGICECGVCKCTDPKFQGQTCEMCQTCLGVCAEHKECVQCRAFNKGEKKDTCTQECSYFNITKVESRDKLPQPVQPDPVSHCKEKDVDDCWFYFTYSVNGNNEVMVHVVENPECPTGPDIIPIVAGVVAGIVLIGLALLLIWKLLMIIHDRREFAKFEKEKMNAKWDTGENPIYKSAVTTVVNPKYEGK

SMILES: Cn1cc(C(=O)Nc2cc(F)c(CC(=O)N3C[C@@H](F)C[C@H]3CO[C@H]3CC[C@H](C(=O)O)CC3)cc2Cl)c2ccccc21 [Example 65, trans-4-(1-((5-Chloro-2-fluoro-4-((1-methyl-3-indolylcarbonyl)amino)phenyl)acetyl)-(4S)-fluoro-(2S)-pyrrolidinylmethoxy)cyclohexanecarboxylic acid]
- Ki [1]: 4 nM
- concentration at 15 min [2]: 11.5 µg/mL

SMILES: Cn1cc(C(=O)Nc2ccc(CC(=O)N3C[C@@H](F)C[C@H]3CO[C@H]3CC[C@H](C(=O)O)CC3)cc2F)c2ccccc21 [Example 70, trans-4-(1-(3-Fluoro-4-(1-methyl-3-indolyl)carbonylaminophenylacetyl)-(4S)-fluoro-(2S)-pyrrolidinylmethoxy)cyclohexanecarboxylic acid]
- Ki [1]: 7.2 nM
- concentration at 15 min [2]: 2.8 µg/mL

SMILES: Cn1cc(C(=O)Nc2cc(F)c(CC(=O)N3C[C@@H](F)C[C@H]3CO[C@H]3CC[C@H](C(=O)O)CC3)cc2F)c2ccccc21 [Example 71, trans-4-(1-(2,5-Difluoro-4-((1-methyl-1H-3-indolylcarbonyl)amino)phenylacetyl)-(4S)-fluoro-(2S)-pyrrolidinylmethoxy)cyclohexanecarboxylic acid]
- Ki [1]: 18 nM
- concentration at 15 min [2]: 7.34 µg/mL

SMILES: O=C(Nc1ccc(CC(=O)N2C[C@@H](F)C[C@H]2CO[C@H]2CC[C@H](C(=O)O)CC2)cc1Br)c1nccc2ccccc12 [Example 79, trans-4-(1-((3-Bromo-4-((1-isoquinolinylcarbonyl)amino)phenyl)acetyl)-(4S)-fluoro-(2S)-pyrrolidinylmethoxy)cyclohexanecarboxylic acid]
- Ki [1]: 4.5 nM
- concentration at 15 min [2]: 9.37 µg/mL

SMILES: O=C(Nc1ccc(CC(=O)N2C[C@@H](F)C[C@H]2CO[C@H]2CC[C@H](C(=O)O)CC2)cc1Cl)c1nsc2ccccc12 [Example 83, trans-4-(1-(3-Chloro-4-((3-benzo(d)isothiazolylcarbonyl)amino)phenylacetyl)-(4S)-fluoro-(2S)-pyrrolidinylmethoxy)cyclohexanecarboxylic acid]
- Ki [1]: 1.9 nM
- concentration at 15 min [2]: 1.54 µg/mL

SMILES: O=C(Nc1cc(F)c(CC(=O)N2C[C@@H](F)C[C@H]2CO[C@H]2CC[C@H](C(=O)O)CC2)cc1Cl)N1CCc2ccccc21 [Example 91, trans-4-(1-(5-Chloro-2-fluoro-4-(1-(indolinyl)carbonylamino)phenylacetyl)-(4S)-fluoro-(2S)-pyrrolidinylmethoxy)cyclohexanecarboxylic acid]
- Ki [1]: 2 nM
- concentration at 15 min [2]: 2.96 µg/mL

SMILES: O=C(Nc1ccc(CC(=O)N2C[C@@H](F)C[C@H]2CO[C@H]2CC[C@H](C(=O)O)CC2)cc1Cl)N1CCc2ccc(F)cc21 [Example 92]
- Ki [1]: 2.7 nM
- concentration at 15 min [2]: 1.99 µg/mL

SMILES: CO[C@@H]1C[C@@H](CO[C@H]2CC[C@H](C(=O)O)CC2)N(C(=O)Cc2cc(Cl)c(NC(=O)c3cn(C)c4ccccc34)cc2F)C1 [Example 115, trans4-(1-((5-chloro-2-fluoro-4-(1-methyl-3-indolylcarbonylamino)phenyl)acetyl)-(4R)-methoxy-(2S)-pyrrolidinylmethoxy)cyclohexanecarboxylic acid]
- Ki [1]: 30 nM
- concentration at 15 min [2]: 0.888 µg/mL

SMILES: CO[C@H]1C[C@@H](CO[C@H]2CC[C@H](C(=O)O)CC2)N(C(=O)Cc2cc(Cl)c(NC(=O)c3cn(C)c4ccccc34)cc2F)C1 [Example 116, trans-4-(1-((5-Chloro-2-fluoro-4-(1-methyl-3-indolylcarbonylamino)phenyl)acetyl)-(4S)-methoxy-(2S)-pyrrolidinylmethoxy)cyclohexanecarboxylic acid]
- Ki [1]: 2.5 nM
- concentration at 15 min [2]: 9.4 µg/mL

SMILES: C=CCO[C@H]1C[C@@H](CO[C@H]2CC[C@H](C(=O)O)CC2)N(C(=O)Cc2cc(Cl)c(NC(=O)c3cn(C)c4ccccc34)cc2F)C1 [Example 117, trans-4-((4S)-Allyloxy-1-((5-chloro-2-fluoro-4-(1-methyl-3-indolylcarbonylamino)phenyl)acetyl)-(2S)-pyrrolidinylmethoxy)cyclohexanecarboxylic acid]
- Ki [1]: 5.1 nM
- concentration at 15 min [2]: 2.93 µg/mL

SMILES: CCCO[C@H]1C[C@@H](CO[C@H]2CC[C@H](C(=O)O)CC2)N(C(=O)Cc2cc(Cl)c(NC(=O)c3cn(C)c4ccccc34)cc2F)C1 [Example 118, trans-4-(1-((5-Chloro-2-fluoro-4-(1-methyl-3-indolylcarbonylamino)phenyl)acetyl)-(4S)-propoxy-(2S)-pyrrolidinylmethoxy)cyclohexanecarboxylic acid]
- Ki [1]: 6.9 nM
- concentration at 15 min [2]: 5.73 µg/mL

SMILES: CO[C@H]1C[C@@H](CO[C@H]2CC[C@H](C(=O)O)CC2)N(C(=O)Cc2cc(Cl)c(NC(=O)c3nn(C)c4ccccc34)cc2F)C1 [Example 121, trans-4-(1-((5-Chloro-2-fluoro-4-(1-methyl-3-indazolylcarbonylamino)phenyl)acetyl)-(4S)-methoxy-(2S)-pyrrolidinylmethoxy)cyclohexanecarboxylic acid]
- Ki [1]: 3.9 nM
- concentration at 15 min [2]: 4.41 µg/mL

Further compounds by falling Ki [1], results first:

- Ki [1]: 9.1 nM
- concentration at 15 min [2]: 15.1 µg/mL
SMILES: Cn1nc(C(=O)Nc2cc(F)c(CC(=O)N3C[C@@H](F)C[C@H]3CO[C@H]3CC[C@H](C(=O)O)CC3)cc2Cl)c2ccccc21 [Example 87, trans-4-(1-((5-Chloro-2-fluoro-4-((1-methyl-3-indazolylcarbonyl)amino)phenyl)acetyl)-(4S)-fluoro-(2S)-pyrrolidinylmethoxy)cyclohexanecarboxylic acid]

- Ki [1]: 7.7 nM
- concentration at 15 min [2]: 14.1 µg/mL
SMILES: Cn1cc(C(=O)Nc2cc(F)c(CC(=O)N3C[C@@H](F)C[C@H]3CO[C@H]3CC[C@H](C(=O)O)CC3)cc2Cl)c2cc(F)ccc21 [Example 74, trans-4-(1-((5-Chloro-2-fluoro-4-(((5-fluoro-1-methyl-3-indolyl)carbonyl)amino)phenyl)acetyl)-(4S)-fluoro-(2S)-pyrrolidinylmethoxy)cyclohexanecarboxylic acid]

- Ki [1]: 5.5 nM
- concentration at 15 min [2]: 0.533 µg/mL
SMILES: Cn1cc(-c2nc3ccc(CC(=O)N4C[C@@H](F)C[C@H]4CO[C@H]4CC[C@H](C(=O)O)CC4)cc3o2)c2cc(F)ccc21 [Example 100, trans-4-(1-((2-(5-Fluoro-1-methyl-3-indolyl)-6-benzoxazolyl)acetyl)-(4S)-fluoro-(2S)-pyrrolidinylmethoxy)cyclohexanecarboxylic acid]

- Ki [1]: 4.4 nM
- concentration at 15 min [2]: 1.88 µg/mL
SMILES: Cn1cc(C(=O)Nc2cc(Cl)c(CC(=O)N3C[C@@H](F)C[C@H]3CO[C@H]3CC[C@H](C(=O)O)CC3)cc2Cl)c2ccccc21 [Example 72, trans-4-(1-(2,5-Dichloro-4-((1-methyl-1H-3-indolylcarbonyl)amino)phenylacetyl)-(4S)-fluoro-(2S)-pyrrolidinylmethoxy)cyclohexanecarboxylic acid]

- Ki [1]: 3.6 nM
- concentration at 15 min [2]: 10.9 µg/mL
SMILES: Cn1nc(C(=O)Nc2ccc(CC(=O)N3C[C@@H](F)C[C@H]3CO[C@H]3CC[C@H](C(=O)O)CC3)cc2Cl)c2ccccc21 [Example 89, trans-4-(1-((3-Chloro-4-((1-methyl-3-indazolylcarbonyl)amino)phenyl)acetyl)-(4S)-fluoro-(2S)-pyrrolidinylmethoxy)cyclohexanecarboxylic acid]

- Ki [1]: 3.6 nM
- concentration at 15 min [2]: 2.21 µg/mL
SMILES: Cn1cc(-c2nc3ccc(CC(=O)N4C[C@@H](F)C[C@H]4CO[C@H]4CC[C@H](C(=O)O)CC4)c(F)c3o2)c2ccccc21 [Example 98, trans-4-(1-((7-Fluoro-2-(1-methyl-3-indolyl)-6-benzoxazolyl)acetyl)-(4S)-fluoro-(2S)-pyrrolidinylmethoxy)cyclohexanecarboxylic acid]

Source: patent US7157487B2, “Vla-4 inhibitors” (Daiichi Pharmaceutical Co., Ltd., priority 2000, dated 2007)
